Experimental data published in patent publication US11110209B2, “Intraluminal therapy system for gastrointestinal infections” (MACKAY MEDICAL FOUNDATION THE PRESBYTERIAN CHURCH IN TAIWAN …, priority 2017, dated 2021).

Test: Clinical study: gastric juice pH after irrigation
Format: in vivo
Conditions: patients; acetylcysteine (12 mg/ml) solution irrigation of gastric mucosa after two tablets of sublingual Takepron
Protocol: Ten patients having H. pylori infection without prior eradication therapy were enrolled. Before the intraluminal therapy, two tablets of proton pump inhibitor (Takepron) were sublingually administered to the patient. Using the system of the invention, the gastric mucosa was irrigated with acetylcysteine (12 mg/ml) solution to remove the acid and mucous on the gastric mucosa. The pH levels before and after irrigation were measured. The acidity of the gastric juice could be well controlled at around pH 5.0 after irrigation. The total dosage of acetylcysteine was less than 140 mg/kg. Then amoxicillin, metronidazole, clarithromycin, sucrate gel and distilled water were mixed to form a complex. […] The viscosities of the complexes were shown below.

With `CC(=O)N[C@@H](CS)C(=O)O` [acetylcysteine] the “pH of gastric juice after irrigation” value was roughly 5.0 pH.
